Laboratory results reported in US20050043379A1, “LTA4H Modulators” (priority 2003, published 2005).
Counter-ions that a name gives are not always drawn.

test system: colitis symptoms; test: not given; settings: eight weeks of treatment; cited from earlier work

| SMILES | colitis symptoms |
| --- | --- |
| CN(CCCOc1ccc(Cc2ccccc2)cc1)CCC(=O)O.Cl [SC57461] | significantly improved colitis symptoms |

test system: ionophore-induced LTB4 production; test: not given; settings: oral administration; cited from earlier work

| SMILES | inhibition of ionophore-induced LTB4 production in rat peritoneum in vivo |
| --- | --- |
| CN(CCCOc1ccc(Cc2ccccc2)cc1)CCC(=O)O.Cl [SC57461] | caused inhibition of ionophore-induced LTB4 production |

test system: ionophore-induced LTB4 production; test: not given; settings: oral administration; cited from earlier work; remark: another data set of the same source

| SMILES | inhibition of ionophore-induced LTB4 production in mouse blood ex vivo |
| --- | --- |
| CN(CCCOc1ccc(Cc2ccccc2)cc1)CCC(=O)O.Cl [SC57461] | caused inhibition of ionophore-induced LTB4 production |

test system: neutrophil influx (myeloperoxidase activity) in arachidonic acid-treated ear; test: Murine arachidonic acid-induced inflammation model: neutrophil influx by myeloperoxidase (MPO) activity in ear biopsies; assay type: in vivo, mouse (female Balb/c); settings: Mus musculus, TABLE 7, 30 mg/kg oral gavage, ear biopsies 3 h after topical arachidonic acid (given 60 min after dose), read-out: % Inh. MPO
Procedure: Murine Arachidonic Acid-induced Inflammation Model LTA4H inhibitor compounds of the present invention were dissolved in 20% cyclodextran/H2O at a concentration of 3 mg/mL. The solutions were administered by oral gavage to female Balb/c mice weighing approximately 20 grams each (0.2 mL per mouse, 30 mg of LTA4H inhibitor compound per kg). Sixty minutes after being administered an LTA4 inhibitor, each mouse received topical application of 20 μL of arachidonic acid (100 mg/mL in acetone) to the left ear and 20 μL of acetone only to the right ear. After 3 h, the mice were sacrificed, blood was withdrawn in heparinized syringes, and 8 mm ear biopsies were taken. Ear biopsies were weighed to determine edema and then frozen at -80° C. until needed for determination of neutrophil influx. Neutrophil influx was quantified by measuring the activity of myeloperoxidase (MPO), a neutrophil-specific enzyme. […] Debris was removed by centrifugation at 14000×g for 10 min. […] The microtiter plate contents were held at room temperature for 1 h. The reaction was stopped by addition of 100 μ[…] H2SO4 to each sample well, and the myeloperoxidase activity in each sample was determined from the absorbance at 405 nm. The background value from the right ear, treated only with acetone, was subtracted from that for the left ear, treated with arachidonic acid in acetone, for each animal. The percent inhibition of neutrophil influx (% Inh. MPO) by compounds of the invention was determined by comparison to animals treated identically, except that the solution administered by oral gavage was devoid of inhibitor compound.

| SMILES | inhibition at 30 mg/kg [%] |
| --- | --- |
| c1ccc2oc(Oc3ccc(OCCN4CCCCC4)cc3)nc2c1 [Example 11, 2-[4-(2-Piperidin-1-yl-ethoxy)-phenoxy]-benzooxazole] | 95 |
| OC1CCN(CCOc2ccc(Oc3nc4ccccc4o3)cc2)CC1 [Example 14, 1-{2-[4-(Benzooxazol-2-yloxy)-phenoxy]-ethyl}-piperidin-4-ol] | 56 |
| OC1(c2ccccc2)CCN(CCCOc2ccc(Oc3nc4ccccc4o3)cc2)CC1 [Example 27, 1-{3-[4-(Benzooxazol-2-yloxy)-phenoxy]-propyl}-4-phenyl-piperidin-4-ol] | 72 |

same assay, conditions: Mus musculus, TABLE 8, 30 mg/kg oral gavage, ear biopsies 3 h after topical arachidonic acid (given 60 min after dose), read-out: % Inh. MPO

| SMILES | inhibition at 30 mg/kg [%] |
| --- | --- |
| O=C1C[C@H](O)CN1C1CCN(CCc2ccc(Oc3nc4ccccc4s3)cc2)CC1 [Example 336, (S)-1-(1-{2-[4-(Benzothiazol-2-yloxy)-phenyl]-ethyl}-piperidin-4-yl)-4-hydroxy-pyrrolidin-2-one] | 0 |
| O=C1C[C@@H](O)CN1C1CCN(Cc2ccc(Oc3nc4ccccc4s3)cc2)CC1 [Example 446, 1-{1-[4-(Benzothiazol-2-yloxy)-benzyl]-piperidin-4-yl}-4-hydroxy-pyrrolidin-2-one] | 43 |
| O=C(CO)N1CCN(CCc2ccc(Oc3nc4ccccc4s3)cc2)CC1 [Example 325, 1-(4-{2-[4-(Benzothiazol-2-yloxy)-phenyl]-ethyl}-piperazin-1-yl)-2-hydroxy-ethanone] | 67 |
| c1ccc2sc(Oc3ccc(OCCn4nnnc4C4CCNCC4)cc3)nc2c1 [Example 206, 2-{4-[2-(5-Piperidin-4-yl-tetrazol-1-yl)-ethoxy]-phenoxy}-benzothiazole] | 76 |
| OCC1CCCCN1CCOc1ccc(Oc2nc3ccccc3s2)cc1 (stereo not drawn) [Example 263, (1-{2-[4-(Benzothiazol-2-yloxy)-phenoxy]-ethyl}-piperidin-2-yl)-methanol] | 19 |
| O=C(O)C1CCN(Cc2ccc(Oc3nc4ccccc4s3)cc2)CC1 [Example 250, 1-[4-(Benzothiazol-2-yloxy)-benzyl]-piperidine-4-carboxylic acid] | 94 |
| O=C(O)C1CCN(CCc2ccc(Oc3nc4ccccc4s3)cc2)CC1 [Example 150, 1-{2-[4-(Benzothiazol-2-yloxy)-phenyl]-ethyl}-piperidine-4-carboxylic acid] | 91 |
| O=C1C[C@H](O)CN1C1CCN(Cc2ccc(Oc3nc4ccccc4s3)cc2)CC1 [Example 447, 1-{1-[4-(Benzothiazol-2-yloxy)-benzyl]-piperidin-4-yl}-4-hydroxy-pyrrolidin-2-one] | 48 |
| CS(=O)(=O)NC1CCN(Cc2ccc(Oc3nc4ccccc4s3)cc2)CC1 [Example 361, N-{1-[4-(Benzothiazol-2-yloxy)-benzyl]-piperidin-4-yl}-methanesulfonamide] | 90 |
| O=C(O)C1CCCN(CCc2ccc(Oc3nc4ccccc4s3)cc2)C1 (stereo not drawn) [Example 155, 1-{2-[4-(Benzothiazol-2-yloxy)-phenyl]-ethyl}-piperidine-3-carboxylic acid] | 93 |
| NC(=O)C1CCN(Cc2ccc(Oc3nc4ccccc4s3)cc2)CC1 [Example 274, 1-[4-(Benzothiazol-2-yloxy)-benzyl]-piperidine-4-carboxylic acid amide] | 87 |

same assay, conditions: Mus musculus, po, read-out: % Inh. MPO

| SMILES | inhibition at 30 mg/kg [%] |
| --- | --- |
| O=C(O)C1CCN(CCOc2ccc(Oc3nc4ccccc4s3)cc2)CC1 [Example 18, 1-{2-[4-(Benzothiazol-2-yloxy)-phenoxy]-ethyl}-piperidine-4-carboxylic acid potassium salt] | 83 |
